Results as given in BindingDB's records for doi:10.7270/Q2TX3CTT (Broad Institute, 2010).
pEC50: −log10 of the molar value. Where a name gives a salt, the structure may show the parent alone.

target: Glycogen synthase kinase-3 beta (Homo sapiens, UniProt P49841); assay: GSK3beta kinase inhibitor potency, dose response, biochemical, luminescence, cell-free homogeneous, retest (AID 434954)
Sequence (P49841 whole entry): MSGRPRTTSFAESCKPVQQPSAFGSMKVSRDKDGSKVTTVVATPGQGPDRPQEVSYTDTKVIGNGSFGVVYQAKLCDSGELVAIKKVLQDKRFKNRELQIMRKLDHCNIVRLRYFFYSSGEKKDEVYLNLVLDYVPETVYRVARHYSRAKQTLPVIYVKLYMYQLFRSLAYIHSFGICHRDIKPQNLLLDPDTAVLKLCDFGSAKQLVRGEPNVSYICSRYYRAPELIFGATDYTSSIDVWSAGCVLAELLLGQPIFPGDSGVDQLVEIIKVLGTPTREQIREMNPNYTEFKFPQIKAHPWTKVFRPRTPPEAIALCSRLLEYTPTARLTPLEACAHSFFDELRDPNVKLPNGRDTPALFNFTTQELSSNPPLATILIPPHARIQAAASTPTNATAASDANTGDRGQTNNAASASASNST

Question: With CCOC(=O)c1nnn(-c2nonc2N)c1-c1ccc(C)cc1 [ethyl 1-(4-amino-1,2,5-oxadiazol-3-yl)-5-(4-methylphenyl)triazole-4-carboxylate] as the compound, how does the pEC50 read?
Answer: 4.29

Question: With O=C(COc1ccccc1[N+](=O)[O-])NN=Cc1ccncc1 as the compound, how does the pEC50 read?
Answer: < 3.52

Question: How did the pEC50 turn out when O=C(COc1ccccc1[N+](=O)[O-])NN=Cc1cccs1 [SMR000185881] was run?
Answer: < 3.52

Question: How did the pEC50 turn out when c1ccc(-n2cnnc2SCc2cn3cccnc3n2)cc1 [2-(4-Phenyl-4H-[1,2,4]triazol-3-ylsulfanylmethyl)-imidazo[1,2-a]pyrimidine] was run?
Answer: < 3.52

Question: How did the pEC50 turn out when CCOc1ccccc1CNC(=O)CCn1ccc2cc(S(=O)(=O)N3CCCCC3)ccc21 [SMR000629632] was run?
Answer: < 3.52

Question: CC(C)N1CCc2c(sc(NC(=O)CCc3ccccc3)c2C(N)=O)C1 [MLS000419104] was tested. Which pEC50 did it give?
Answer: < 3.52

Question: CCCn1nc(NC(=O)c2cccs2)c2cc3ccccc3nc21 [Thiophene-2-carboxylic acid (1-propyl-1H-pyrazolo[3,4-b]quinolin-3-yl)-amide] was tested. Which pEC50 did it give?
Answer: < 3.52

Question: With CC[n+]1c(/C=C/N(C)c2ccccc2)oc2ccc(F)cc21 as the compound, how does the pEC50 read?
Answer: < 3.52

Question: With Cc1ccc(-c2nnc3ccc(SC(C)C(=O)O)nn23)cc1 (stereo unspecified) [2-[[3-(4-methylphenyl)-[1,2,4]triazolo[4,3-b]pyridazin-6-yl]sulfanyl]propanoic acid] as the compound, how does the pEC50 read?
Answer: 4.47

Question: How did the pEC50 turn out when CCCn1c(SCC(=O)N2CCCCC2)nnc1-c1ccccn1 [1-piperidin-1-yl-2-[(4-propyl-5-pyridin-2-yl-1,2,4-triazol-3-yl)sulfanyl]ethanone] was run?
Answer: < 3.52

Question: How did the pEC50 turn out when CN1CCN(C(=O)c2ccc(OCCOc3ccccc3)cc2)CC1 [(4-methylpiperazin-1-yl)-[4-(2-phenoxyethoxy)phenyl]methanone] was run?
Answer: < 3.52

Question: With Nc1nonc1-n1nnc(C(=O)NN=Cc2ccoc2)c1CSc1ccc(Cl)cc1 [1-(4-amino-1,2,5-oxadiazol-3-yl)-5-[(4-chlorophenyl)sulfanylmethyl]-N-(furan-3-ylmethylideneamino)triazole-4-carboxamide] as the compound, how does the pEC50 read?
Answer: < 3.52

Question: CCN(CC)Cc1c(C(=O)N/N=C/c2ccncc2)nnn1-c1nonc1N was tested. Which pEC50 did it give?
Answer: 6.75

Question: With CCOc1ccccc1C=NNC(=O)c1nnn(-c2nonc2N)c1CN1CCCC1 [1-(4-amino-1,2,5-oxadiazol-3-yl)-N-[(2-ethoxyphenyl)methylideneamino]-5-(pyrrolidin-1-ylmethyl)triazole-4-carboxamide] as the compound, how does the pEC50 read?
Answer: 5.97

Question: Cc1nonc1-c1nnc(-c2nonc2N)[nH]1 [SMR000040798] was tested. Which pEC50 did it give?
Answer: 4.53

Question: How did the pEC50 turn out when O=C(OCc1ccc(COC(=O)c2ccc(O)cc2)cc1)c1ccc(O)cc1 [SMR000588531] was run?
Answer: < 3.52

Question: With COc1cc(C(=O)Nc2cccc(-c3nc4ncccc4o3)c2C)cc(OC)c1OC [MLS000039714] as the compound, how does the pEC50 read?
Answer: < 3.52

Question: With C=CCNC(=O)/C(=C\c1cccc([N+](=O)[O-])c1)NC(=O)c1ccccc1 as the compound, how does the pEC50 read?
Answer: < 3.52

Question: CC(C(=O)NC1CCCCCC1)n1cc([N+](=O)[O-])cn1 (stereo unspecified) [N-cycloheptyl-2-(4-nitro-1-pyrazolyl)propanamide] was tested. Which pEC50 did it give?
Answer: < 3.52

Question: N=C(N)N/N=C1/C(=O)Nc2ccc(Br)cc21 [2-[(5-bromo-2-oxo-3-indolyl)amino]guanidine;hydrochloride] was tested. Which pEC50 did it give?
Answer: 4.50

Question: With Cc1[nH]nc2c1C(c1ccc(O)cc1)C1C(=O)CC(C)(C)CC1=N2 (stereo unspecified) as the compound, how does the pEC50 read?
Answer: 5.69

Question: With CCOc1ccc(NC(=O)COC(=O)c2ccc3c(c2)C(=O)N(CCc2ccccc2)C3=O)cc1 [SMR000261375] as the compound, how does the pEC50 read?
Answer: < 3.52

Question: C=CCOC(=O)C1C(C)=Nc2ncnn2C1c1cccs1 (stereo unspecified) was tested. Which pEC50 did it give?
Answer: < 3.52

Question: CCCCc1cc(=O)oc2cc(C)cc(OC(C)C(=O)O)c12 (stereo unspecified) [SMR000043773] was tested. Which pEC50 did it give?
Answer: < 3.52

Question: With COCCn1c(SCC(=O)Nc2ccccc2OC)nc2ccccc21 [SMR000377677] as the compound, how does the pEC50 read?
Answer: < 3.52

Question: COc1cccc(C(=O)NCCCNC(=O)c2cccc(OC)c2)c1 [3-methoxy-N-[3-[[(3-methoxyphenyl)-oxomethyl]amino]propyl]benzamide] was tested. Which pEC50 did it give?
Answer: < 3.52

Question: With Cc1cccc(COc2ccc(/C=C3/C(=O)N(C)C(=S)N3C)cc2)c1 [MLS001164511] as the compound, how does the pEC50 read?
Answer: < 3.52

Question: How did the pEC50 turn out when COc1ccc(-c2nn(-c3ccccc3)cc2C=NNC(N)=S)cc1OC [[[3-(3,4-dimethoxyphenyl)-1-phenyl-4-pyrazolyl]methylideneamino]thiourea] was run?
Answer: < 3.52

Question: With O=C(CSc1ccc2nnc(-c3ccc(F)cc3)n2n1)N1CCOCC1 [2-[[3-(4-fluorophenyl)-[1,2,4]triazolo[4,3-b]pyridazin-6-yl]sulfanyl]-1-morpholin-4-yl-ethanone] as the compound, how does the pEC50 read?
Answer: < 3.52

Question: O=C(Nc1cccc2c1C(=O)NC2=O)c1ccc(-n2c(O)ccc2O)cc1 [N-[1,3-bis(oxidanylidene)isoindol-4-yl]-4-[2,5-bis(oxidanylidene)pyrrolidin-1-yl]benzamide] was tested. Which pEC50 did it give?
Answer: 4.11

Question: How did the pEC50 turn out when COc1cc([CH+][N-]NC(=O)c2ccc(O)cc2)ccc1Oc1ccc([N+](=O)[O-])cn1 [4-hydroxy-N-[[3-methoxy-4-(5-nitropyridin-2-yl)oxyphenyl]methylideneamino]benzamide;propan-2-ol] was run?
Answer: < 3.52

Question: How did the pEC50 turn out when O=C(NN=Cc1ccc2nccnc2c1)c1ccncc1 [N-(quinoxalin-6-ylmethylideneamino)pyridine-4-carboxamide] was run?
Answer: < 3.52

Question: C=CCn1c(SCC(=O)Nc2ccc(Cl)cn2)nnc1C1CC1 was tested. Which pEC50 did it give?
Answer: 4.40

Question: How did the pEC50 turn out when CCn1c(SCC(=O)Nc2ccc(N(C)C)cc2)nnc1C1CC1 [SMR000601384] was run?
Answer: < 3.52

Question: With O=Cc1ccc(Oc2nc(Cl)ncc2F)cc1 [4-[(2-chloro-5-fluoro-4-pyrimidinyl)oxy]benzaldehyde] as the compound, how does the pEC50 read?
Answer: < 3.52

Question: With COc1ccc(CC(=O)Nc2nc(-c3ccccc3)c(C(C)=O)s2)cc1OC [2-(3,4-dimethoxyphenyl)-N-(5-ethanoyl-4-phenyl-1,3-thiazol-2-yl)ethanamide] as the compound, how does the pEC50 read?
Answer: 5.13

Question: How did the pEC50 turn out when CCC(=O)Nc1sc2c(c1C(N)=O)CCN(Cc1ccccc1)C2 was run?
Answer: < 3.52

Question: CCOC(=O)C=C(C)[N+]1=N[C-](c2ccc(OC)cc2)CC1c1cccc([N+](=O)[O-])c1 (stereo unspecified) [(Z)-3-[5-(4-methoxyphenyl)-3-(3-nitrophenyl)-3,4-dihydropyrazol-2-yl]-2-butenoic acid ethyl ester] was tested. Which pEC50 did it give?
Answer: < 3.52

Question: How did the pEC50 turn out when Cc1c(CN(C)C)c2c(n1C)C(=O)c1ccc(Br)cc1-2 [7-bromo-1-[(dimethylamino)methyl]-2,3-dimethyl-4-indeno[2,3-b]pyrrolone;hydrochloride] was run?
Answer: 4.75

Question: O=C(NCC(c1ccco1)N1CCc2ccccc2C1)c1ccccc1Cl (stereo unspecified) [2-chloro-N-[2-(3,4-dihydro-1H-isoquinolin-2-yl)-2-(2-furanyl)ethyl]benzamide] was tested. Which pEC50 did it give?
Answer: < 3.52

Question: With O=C(/[O+]=N/[CH-]c1ccc(N2CCCCC2)c([N+](=O)[O-])c1)c1cccc(Cl)c1 [[(3-nitro-4-piperidin-1-yl-phenyl)methylideneamino] 3-chloranylbenzoate] as the compound, how does the pEC50 read?
Answer: < 3.52

Question: With Fc1cccc(Nc2ncnc3n[nH]cc23)c1 [MLS001033418] as the compound, how does the pEC50 read?
Answer: 4.49

Question: COc1cccc2cc(C(=O)Oc3ccccc3)c(=O)oc12 [MLS000999696] was tested. Which pEC50 did it give?
Answer: < 3.52

Question: O=NCc1ccc(Oc2cccc(Cl)c2)c([N+](=O)[O-])c1 [MLS000694755] was tested. Which pEC50 did it give?
Answer: 4.42

Question: How did the pEC50 turn out when Cc1ccccc1NC(=O)Nc1ccccn1 [1-(2-methylphenyl)-3-pyridin-2-ylurea] was run?
Answer: < 3.52

Question: How did the pEC50 turn out when COc1cccc(CN=Nc2cc(Cl)nc(C)n2)c1O [SMR000274053] was run?
Answer: < 3.52

Question: With CN(Cc1ccccc1)Cc1nc2c([nH]1)c(=O)n(C)c(=O)n2C [1,3-dimethyl-8-[[methyl-(phenylmethyl)amino]methyl]-7H-purine-2,6-dione] as the compound, how does the pEC50 read?
Answer: < 3.52

Question: How did the pEC50 turn out when c1ccc(-c2nc(NCCCn3ccnc3)c3ccccc3n2)cc1 [MLS001007021] was run?
Answer: 4.47

Question: Cc1ccc2c(c1)NC(c1cccs1)C1C(=O)CC(C)(C)CC1=N2 (stereo unspecified) [3,9,9-trimethyl-6-thiophen-2-yl-6,8,10,11-tetrahydro-5H-benzo[b][1,4]benzodiazepin-7-one] was tested. Which pEC50 did it give?
Answer: < 3.52

Question: With COc1cc(C2OCC3C(c4cc(OC)c(OC)c(OC)c4)OCC23)cc(OC)c1OC (stereo unspecified) as the compound, how does the pEC50 read?
Answer: < 3.52

Question: O=C(NCCCN1CCCCC1)c1ccc2c(c1)NC(=O)c1ccccc1S2 [6-oxidanylidene-N-(3-piperidin-1-ylpropyl)-5H-benzo[b][1,4]benzothiazepine-3-carboxamide] was tested. Which pEC50 did it give?
Answer: < 3.52

Question: How did the pEC50 turn out when N#Cc1c(-c2ccccc2)nc(SCC(=O)N(c2ccccc2)c2ccccc2)[nH]c1=O [2-[(5-cyano-6-oxo-4-phenyl-1,6-dihydro-2-pyrimidinyl)thio]-N,N-diphenylacetamide] was run?
Answer: < 3.52

Question: With COc1cc(CN=O)ccc1OCc1ccccc1Cl [4-(2-chlorobenzyl)oxy-3-methoxy-benzaldoxime] as the compound, how does the pEC50 read?
Answer: < 3.52

Question: How did the pEC50 turn out when CCCN1CCN(CCCNC(=O)c2ccc3c(c2)NC(=O)c2ccccc2S3)CC1 [MLS001110989] was run?
Answer: < 3.52

Question: How did the pEC50 turn out when Cc1ccc(S(=O)(=O)CC(=O)c2cc3cccc(C)c3oc2=O)cc1 [8-methyl-3-[2-(4-methylphenyl)sulfonyl-1-oxoethyl]-1-benzopyran-2-one] was run?
Answer: < 3.52

Question: COCCN(CC(=O)NCc1ccc(F)cc1)C(=O)CCC(=O)Nc1ccccn1 was tested. Which pEC50 did it give?
Answer: < 3.52

Question: How did the pEC50 turn out when CCSc1nc(N)nc(-c2cccs2)c1C#N [2-amino-4-ethylsulfanyl-6-thiophen-2-ylpyrimidine-5-carbonitrile] was run?
Answer: < 3.52

Question: How did the pEC50 turn out when COc1ccc(CNC(=O)CN(Cc2cccs2)C(=O)CCC(=O)Nc2ccccn2)cc1 [MLS000687650] was run?
Answer: 4.87

Question: CCOC(=O)c1cnc2ccc(Cl)cc2c1N1CCN(C)CC1 [6-chloro-4-(4-methyl-1-piperazinyl)-3-quinolinecarboxylic acid ethyl ester] was tested. Which pEC50 did it give?
Answer: 4.83

Question: How did the pEC50 turn out when CCOc1ccc(CNC(=O)C2CCN(c3nnc(C)c4c(C)n(-c5ccc(C)cc5)nc34)CC2)cc1 [MLS001028751] was run?
Answer: < 3.52

Question: CCOc1ccc(-c2nnc3ccc(SC)nn23)cc1 [SMR000028968] was tested. Which pEC50 did it give?
Answer: < 3.52

Question: CCc1cccc(C)c1NC(=O)CSc1nnc(CCCOc2ccc(Cl)cc2Cl)n1C [2-({5-[3-(2,4-dichlorophenoxy)propyl]-4-methyl-4H-1,2,4-triazol-3-yl}thio)-N-(2-ethyl-6-methylphenyl)acetamide] was tested. Which pEC50 did it give?
Answer: < 3.52

Question: CN1CCN(/N=C2\C(=O)Nc3ccc([N+](=O)[O-])cc32)CC1 [SMR000347605] was tested. Which pEC50 did it give?
Answer: 5.21

Question: How did the pEC50 turn out when Cc1ccccc1NC(=O)CSc1nc(N)c(C#N)c(-c2cccs2)c1C#N [2-(6-amino-3,5-dicyano-4-thiophen-2-ylpyridin-2-yl)sulfanyl-N-(2-methylphenyl)acetamide] was run?
Answer: < 3.52

Question: How did the pEC50 turn out when O=C1NC(=O)c2c(NC(=O)C3CCCO3)cccc21 (stereo unspecified) [MLS000064410] was run?
Answer: < 3.52

Question: With N#CCCn1cc(C(=O)O)c(-c2cccc([N+](=O)[O-])c2)n1 [SMR000372597] as the compound, how does the pEC50 read?
Answer: < 3.52
